Earlier results as cited in US20120035270A1, “PAEDIATRIC SOLUTIONS COMPRISING A BETA-BLOCKER” (priority 2009, published 2012).

How the values were obtained:
[1] = tested on: B. Subtilis, S. Aureus and E. Coli; details: Takahashi et al. 1983
[2] = tested on: Infantile capillary hemangiomas (IH); details: severe hemangiomas of infancy, Léauté-Labrèze et al. 2008
[3] = tested on: B. Subtilis; details: growth of B. Subtilis
[4] = tested on: S. Aureus; details: growth of S. Aureus
[5] = tested on: E. Coli; details: growth of E. Coli

CC(=O)c1cc2cccc(OCC(O)CNC(C)C)c2o1 (stereo not drawn) [befunolol]
antimicrobial effects [1]: do not have these antimicrobial effects

CC(C)(C)NC[C@H](O)COc1nsnc1N1CCOCC1 [Timolol]
antimicrobial effects [1]: do not have these antimicrobial effects

CC(C)NCC(O)COc1cccc2ccccc12 (stereo not drawn) [propranolol, 1-(isopropylamino)-3-(naphthalen-1-yloxy)propan-2-ol]
control and treatment of the growth of IH [2]: could efficiently be used to control and even to treat the growth of IH

Cc1ccc(Cl)c(OCC(O)CNC(C)(C)C)c1 (stereo not drawn) [bupranolol]
minimum inhibitory concentration [3]: 0.1%
minimum inhibitory concentration [4]: 0.05%
minimum inhibitory concentration [5]: 0.05%
